# Source: US9540299B2, “MTOR-independent activator of TFEB for autophagy enhancement and uses thereof” (Hong Kong Baptist University, priority 2015, dated 2017)
# Columns and labels:
# N2a cells = assay: LC3 puncta and tfLC3 autophagy flux imaging in N2a cells; format: cell-based, mouse; conditions: N2a cells transfected with tfLC3, 12 hours
# Description: N2a cells are treated with E4 (1 μM) in the presence or absence of CQ for 12 hours. The cells are fixed and stained with LC3 antibody (red) and DAPI (blue). Representative cells are then selected and photographed under a DeltaVision Deconvolution Microscope (GE Healthcare).
# N2a cells are transiently transfected with mRFP-GFP-LC3 (tfLC3) plasmid and then treated with E4 (1 μM) or CQ (1 μM) for 12 hours. Representative cells are then selected and photographed under a DeltaVision Deconvolution Microscope (GE Healthcare).
# After transiently knockdown the expression of TFEB, N2a cells are treated with E4 (1 μM) for 12 hours, the cells were then stained with LC3 antibody (red) and DAPI (blue).
# Cells are seeded on coverslips placed in 24-well plates. For autophagy flux assay, cells are transfected with tfLC3 plasmid for 24 hours and then treated with the indicated compounds. For other assays, at the end drug treatment, slices are fixed with 3.7% paraformaldehyde, permeabilized in 0.2% Triton X-100 and blocked with 5% BSA. After blocking, the slices are stained with anti-TFEB (1:200) or anti-LC3 (1:500) antibodies overnight at 4° C. […] Cells are visualized using the Eclipse 80i fluorescence microscope (Nikon Instruments Inc.) or the DeltaVision Deconvolution Microscope (GE Healthcare).
# 3×Flag-TFEB = molecular target: T1, 3×Flag-TFEB (Homo sapiens, UniProt P19484); assay: Nuclear translocation of Flag-TFEB in Hela cells stably expressing 3×Flag-TFEB (immunostaining, western blot); format: cell-based; conditions: analogs 1 μM, curcumin 10 μM, 12 h, Torin 1 1 μM, 2 h
# T1 construct: expressed in transfected cells
# T1 sequence (P19484 1-476): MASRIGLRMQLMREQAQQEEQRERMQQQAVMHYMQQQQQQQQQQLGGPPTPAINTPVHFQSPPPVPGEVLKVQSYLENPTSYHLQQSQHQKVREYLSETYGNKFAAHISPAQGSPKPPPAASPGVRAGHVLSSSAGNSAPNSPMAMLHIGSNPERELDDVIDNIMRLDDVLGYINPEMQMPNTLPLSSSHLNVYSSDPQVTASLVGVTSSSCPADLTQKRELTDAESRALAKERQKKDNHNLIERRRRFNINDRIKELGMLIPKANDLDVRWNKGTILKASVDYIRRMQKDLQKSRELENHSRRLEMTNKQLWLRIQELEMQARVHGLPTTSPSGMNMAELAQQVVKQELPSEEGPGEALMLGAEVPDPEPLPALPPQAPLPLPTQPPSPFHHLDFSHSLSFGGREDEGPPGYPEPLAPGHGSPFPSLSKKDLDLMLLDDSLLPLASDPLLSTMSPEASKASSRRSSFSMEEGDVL
# Description: Cells were treated with curcumin (Cur, 10 μM), A2, B3 and C1 (1 μM) for 12 h. […] Data is quantified by ImageJ software and is presented as mean±SD of three replicates for each treatment conditions. At least 1000 cells are analyzed in each treatment group. *p<0.05 vs. the control (0.1% DMSO). FIG. 4C is a western blot showing the expression of endogenous TFEB. […] Data are presented as the mean±SD from three independent experiments. *p<0.05 vs. the control (0.1% DMSO). FIG. 4E is fluorescence images showing expression of 3×Flag-TFEB in Hela cells having treated with Cur (10 μM), A2, B3 and C1 (1 μM) for 12 h. Torin 1 (1 μM) treatment for 2 h is used as a positive control. Cells were fixed and stained with anti-Flag antibody. […] FIG. 4G is the western blot showing the expression of Flag-tagged TFEB in the cytosolic (Cyt.) and nuclear (Nuc.) fractions. ACTB and H3F3A (H3 histone, family 3A) are used as loading control of cytoplasmic and nuclear fraction, respectively. FIG. 4H is showing the relative intensity of TFEB in the cytosolic and nuclear fractions. Data are presented as the mean±SD from three independent experiments. *p<0.05 vs. the control (0.1% DMSO).
# HeLa cells stably expressing 3×Flag-TFEB are treated with curcumin analogs E2, E3 and E4 (1 μM) for 12 hours. Torin 1 (1 μM) treatment for 2 hours is used as a positive control. Cells are fixed and stained with anti-Flag antibody (red) and DAPI (blue) (FIG. 18A). TFEB translocate into nucleus are quantified (FIG. 18B). Quantification data are presented as mean±SD of three replicates in a representative experiment. At least 500 cells are analyzed in each treatment group.
# HeLa cells stably expressing 3×Flag-TFEB are treated with curcumin analogs E2, E3 and E4 (1 μM) for 12 hours. Torin 1 (1 μM) treatment for 2 hours is used as a positive control. The expression of TFEB in the cytosolic (Cyt.) and nuclear (Nuc.) fractions are determined by western blotting (FIG. 19A) and quantified (FIG. 19B). TUBB (β-tubulin) and H3F3A (H3 histone, family 3A) are used as loading control of cytoplasmic and nuclear fraction respectively. Quantification data are presented as the mean±SD from three independent experiments. *p<0.05 vs. the control (0.1% DMSO).
# N2a, Hela and Hela cells stably expressing 3×-Flag-TFEB are cultured in DMEM supplemented with 10% FBS. SH-SY5Y cells are cultured in DMEM/F12 supplemented with 10% FBS. For drug treatment, the full medium is replaced by fresh Opti-MEM I and then the compounds (in 0.1% DMSO) are added to the cells and incubated for 12 h. Inducible PC12 cells overexpressing SNCA (WT and A53T) (a kind gift from Prof. David C. Rubinsztein at Cambridge University) are grown in DMEM supplemented with 10% horse serum, 5% FBS, 50 μg/ml G418, and 150 μg/ml hygromycin B at 37° C., 10% CO2. Cells are treated with 2 μg/ml doxycycline (Dox) for 24 h to induce SNCA expression. The full medium is changed to Opti-MEM I containing the testing compounds for another 48 h.
# Cells are lysed on ice in 1× Lysis Buffer (9803, Life Technologies) with complete protease inhibitor mixture (04693124001, Roche Applied Science). Animal tissues are homogenized in nine volumes of ice-cold PBS supplemented with protease inhibitors. Cytosolic and nuclear fractions are isolated using protocols similar to those described previously. Anti-Flag or TFEB antibody is added to the whole cell lysates and Dynabeads® Protein G (10003D, Life Technologies) is used for immunoprecipitation. Proteins are separated by 10-15% SDS-PAGE, transferred, and blotted with the antibodies described. The blots are then incubated with secondary antibodies or the Clean-Blot IP Detection Reagent (21230, Thermo Scientific) at room temperature for 1 h. The protein signals are detected by ECL kit (32106, Pierce) and quantified using ImageJ software.
# Cells are seeded on coverslips placed in 24-well plates. […]
SMILES,"mRFP-GFP-LC3 (tfLC3) puncta (autophagy flux, autolysosome formation) (N2a cells)",nuclear translocation of Flag-TFEB (3×Flag-TFEB)
"CCN(CC)CCCC(C)Nc1ccnc2cc(Cl)ccc12 (centres unmarked) [CQ, chloroquine, reference compound]",induced accumulation and colocalization of both GFP and mRFP fluorescence,–
"CCC(=O)N1CCN(c2ccc(-n3c(=O)ccc4cnc5ccc(-c6cnc7ccccc7c6)cc5c43)cc2C(F)(F)F)CC1 [Torin 1, reference compound]",–,significantly promotes
